Where two headings read alike, the source gives them in different places.
Test system: LPS-induced TNF-α release in peripheral blood mononuclear cells (PBMCs)
Test: In vitro determination of PDE4 inhibitory activity in the PBMCs assay (LPS-induced TNF-α release)
Assay type: cell-based, human
Details: PBMC, human PBMCs, LPS 3 ng/ml, 18 hours, read-out: PDE4 inhibition (IC50, 50% inhibition of LPS-induced TNF-α release)
Procedure, shortened: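 Cryopreserved human PBMCs (10^5 cells/well) pre-incubated 30 min with compound (10^−12 to 10^−6 M or 10^−3 to 10^−7 M), then stimulated with LPS 3 ng/ml for 18 h at 37 °C. TNF-α in medium by ELISA; IC50 as mean ± 95% confidence limits.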

Row | SMILES | IC50 (TNF-α by ELISA) [nM] | IC50 (compounds of formula (II)) [nM]
1 | O=C(O[C@@H](Cc1c(Cl)c[n+]([O-])cc1Cl)c1ccc(OC(F)F)c(OCC2CC2)c1)[C@@H]1SCCN1S(=O)(=O)c1cccc(OC(F)(F)F)c1 [Compound 104, 3,5-dichloro-4-((S)-2-(3-(cyclopropylmethoxy)-4-(difluoromethoxy)phenyl)-2-((S)-3-(3-(trifluoromethoxy)phenylsulfonyl)thiazolidine-2-carbonyloxy)ethyl)pyridine 1-oxide] | 0.1 to 1 | 
2 | O=C(O[C@@H](Cc1c(Cl)c[n+]([O-])cc1Cl)c1ccc(OC(F)F)c(OCC2CC2)c1)[C@@H]1SCCN1C(=O)c1ccc(CN2CCOCC2)cc1 [Compound 39, 3,5-dichloro-4-((S)-2-(3-(cyclopropylmethoxy)-4-(difluoromethoxy)phenyl)-2-((S)-3-(4-(morpholinomethyl)benzoyl)thiazolidine-2-carbonyloxy)ethyl)pyridine 1-oxide] | 0.1 to 1 | 
3 | CN(C)C(=O)c1cccc(S(=O)(=O)N2CCC[C@@H]2C(=O)O[C@@H](Cc2c(Cl)c[n+]([O-])cc2Cl)c2ccc(OC(F)F)c(OCC3CC3)c2)c1 [Compound 55, 3,5-dichloro-4-((S)-2-(3-(cyclopropylmethoxy)-4-(difluoromethoxy)phenyl)-2-((R)-1-(3-(dimethylcarbamoyl)phenylsulfonyl)pyrrolidine-2-carbonyloxy)ethyl)pyridine 1-oxide] | 0.1 to 1 | 
4 | NCc1cccc(C(=O)N2CCS[C@H]2C(=O)O[C@@H](Cc2c(Cl)c[n+]([O-])cc2Cl)c2ccc(OC(F)F)c(OCC3CC3)c2)c1 [Compound 21, 4-((S)-2-((S)-3-(3-(aminomethyl)benzoyl)thiazolidine-2-carbonyloxy)-2-(3-(cyclopropylmethoxy)-4-(difluoromethoxy)phenyl)ethyl)-3,5-dichloropyridine 1-oxide] | 1 to 10 | 
5 | CN(C)C(=O)c1cccc(CS(=O)(=O)N2CCS[C@H]2C(=O)O[C@@H](Cc2c(Cl)c[n+]([O-])cc2Cl)c2ccc(OC(F)F)c(OCC3CC3)c2)c1 [Compound 295, 3,5-dichloro-4-((S)-2-(3-(cyclopropylmethoxy)-4-(difluoro-methoxy)phenyl)-2-((S)-3-(3-(dimethylcarbamoyl)benzylsulfonyl)-thiazolidine-2-carbonyloxy)ethyl)pyridine 1-oxide] | 0.1 to 1 | 
6 | CN(C)C(=O)c1cccc(C(=O)N2CCS[C@H]2C(=O)O[C@@H](Cc2c(Cl)c[n+]([O-])cc2Cl)c2ccc(OC(F)F)c(OCC3CC3)c2)c1 [Compound 187, 3,5-dichloro-4-((S)-2-(3-(cyclopropylmethoxy)-4-(difluoromethoxy)phenyl)-2-((S)-3-(3-(dimethylcarbamoyl)benzoyl)thiazolidine-2-carbonyloxy)ethyl)pyridine 1-oxide] | 0.1 to 1 | 
7 | COC(=O)c1cc(CN2CCCC2C(=O)O[C@@H](Cc2c(Cl)c[n+]([O-])cc2Cl)c2ccc(OC(F)F)c(OCC3CC3)c2)oc1C (stereo partly drawn) [Compound 15, 3,5-dichloro-4-((2S)-2-(3-(cyclopropylmethoxy)-4-(difluoromethoxy)phenyl)-2-(1-((4-(methoxycarbonyl)-5-methylfuran-2-yl)methyl)pyrrolidine-2-carbonyloxy)ethyl)pyridine 1-oxide] | 1 to 10 | 
8 | Cc1nn(C)c2ncc(S(=O)(=O)N3CCSC3C(=O)O[C@@H](Cc3c(Cl)c[n+]([O-])cc3Cl)c3ccc(OC(F)F)c(OCC4CC4)c3)cc12 (stereo in doubt) [Compound 240, 3,5-dichloro-4-((S)-2-(3-(cyclopropylmethoxy)-4-(difluoromethoxy)phenyl)-2-((S)-3-(1,3-dimethyl-1H-pyrazolo[3,4-b]pyridin-5-ylsulfonyl)thiazolidine-2-carbonyloxy)ethyl)pyridine 1-oxide] | < 0.1 | 
9 | O=C(O[C@@H](Cc1c(Cl)c[n+]([O-])cc1Cl)c1ccc(OC(F)F)c(OCC2CC2)c1)C1SCCN1S(=O)(=O)c1cccc(F)c1 (stereo partly drawn) [Compound 60, 3,5-dichloro-4-((2S)-2-(3-(cyclopropylmethoxy)-4-(difluoromethoxy)phenyl)-2-(3-(3-fluorophenylsulfonyl)thiazolidine-2-carbonyloxy)ethyl)pyridine 1-oxide] | 0.1 to 1 | 
10 | O=C(O[C@@H](Cc1c(Cl)c[n+]([O-])cc1Cl)c1ccc(OC(F)F)c(OCC2CC2)c1)C1SCCN1S(=O)(=O)c1ccccc1 (stereo partly drawn) [Compound 57, 3,5-dichloro-4-((2S)-2-(3-(cyclopropylmethoxy)-4-(difluoromethoxy)phenyl)-2-(3-(phenylsulfonyl)thiazolidine-2-carbonyloxy)ethyl)pyridine 1-oxide] | 0.1 to 1 | 
11 | O=C(O[C@@H](Cc1c(Cl)c[n+]([O-])cc1Cl)c1ccc(OC(F)F)c(OCC2CC2)c1)[C@@H]1SCCN1S(=O)(=O)c1c[nH]c(C(=O)N2CCCC2)c1 [Compound 242, 3,5-dichloro-4-((S)-2-(3-(cyclopropylmethoxy)-4-(difluoromethoxy)phenyl)-2-((S)-3-(5-(pyrrolidine-1-carbonyl)-1H-pyrrol-3-ylsulfonyl)thiazolidine-2-carbonyloxy)ethyl)pyridine 1-oxide] | < 0.1 | 
12 | NC(=O)Nc1cccc(S(=O)(=O)N2CCS[C@H]2C(=O)O[C@@H](Cc2c(Cl)c[n+]([O-])cc2Cl)c2ccc(OC(F)F)c(OCC3CC3)c2)c1 [Compound 269, 3,5-dichloro-4-((S)-2-(3-(cyclopropylmethoxy)-4-(difluoromethoxy)phenyl)-2-((S)-3-(3-ureidophenylsulfonyl)thiazolidine-2-carbonyloxy)ethyl)pyridine 1-oxide] | < 0.1 | 
13 | O=C(O[C@@H](Cc1c(Cl)c[n+]([O-])cc1Cl)c1ccc(OC(F)F)c(OCC2CC2)c1)C1SCCN1C(=O)c1cnco1 (stereo partly drawn) [Compound 35, 3,5-dichloro-4-((2S)-2-(3-(cyclopropylmethoxy)-4-(difluoromethoxy)phenyl)-2-(3-(oxazole-5-carbonyl)thiazolidine-2-carbonyloxy)ethyl)pyridine 1-oxide] | < 0.1 | 
14 | O=C(O[C@@H](Cc1c(Cl)c[n+]([O-])cc1Cl)c1ccc(OC(F)F)c(OCC2CC2)c1)[C@@H]1CCCCN1S(=O)(=O)c1ccccc1 [Compound 114, 3,5-dichloro-4-((S)-2-(3-(cyclopropylmethoxy)-4-(difluoromethoxy)phenyl)-2-((S)-1-(phenylsulfonyl)piperidine-2-carbonyloxy)ethyl)pyridine 1-oxide] | 0.1 to 1 | 
15 | O=C(OC(Cc1c(Cl)c[n+]([O-])cc1Cl)c1ccc(OC(F)F)c(OCC2CC2)c1)C1CNCCO1 (centres unmarked) [Compound 8] |  | 1 to 10
16 | COc1ccc(S(=O)(=O)N2CCSC2C(=O)O[C@@H](Cc2c(Cl)c[n+]([O-])cc2Cl)c2ccc(OC(F)F)c(OCC3CC3)c2)cc1C(=O)N1CCN(C)CC1 (stereo partly drawn) [Compound 127, 3,5-dichloro-4-((2S)-2-(3-(cyclopropylmethoxy)-4-(difluoromethoxy)phenyl)-2-(3-(4-methoxy-3-(4-methylpiperazine-1-carbonyl)phenylsulfonyl)thiazolidine-2-carbonyloxy)ethyl)pyridine 1-oxide] | 0.1 to 1 | 
17 | COC(=O)c1ccc(S(=O)(=O)N2CCS[C@H]2C(=O)O[C@@H](Cc2c(Cl)c[n+]([O-])cc2Cl)c2ccc(OC(F)F)c(OCC3CC3)c2)cc1 [Compound 100, 3,5-dichloro-4-((S)-2-(3-(cyclopropylmethoxy)-4-(difluoromethoxy)phenyl)-2-((S)-3-(4-(methoxycarbonyl)phenylsulfonyl)thiazolidine-2-carbonyloxy)ethyl)pyridine 1-oxide] | 1 to 10 | 
18 | O=C(O[C@@H](Cc1c(Cl)c[n+]([O-])cc1Cl)c1ccc(OC(F)F)c(OCC2CC2)c1)C1SCCN1S(=O)(=O)c1cccnc1 (stereo partly drawn) [Compound 66, 3,5-dichloro-4-((2S)-2-(3-(cyclopropylmethoxy)-4-(difluoromethoxy)phenyl)-2-(3-(pyridin-3-ylsulfonyl)thiazolidine-2-carbonyloxy)ethyl)pyridine 1-oxide] | < 0.1 | 
19 | O=C(O[C@@H](Cc1c(Cl)c[n+]([O-])cc1Cl)c1ccc(OC(F)F)c(OCC2CC2)c1)[C@H]1CCCN1S(=O)(=O)c1ccccc1 [Compound 244, 3,5-dichloro-4-((S)-2-(3-(cyclopropylmethoxy)-4-(difluoromethoxy)phenyl)-2-((R)-1-(phenylsulfonyl)pyrrolidine-2-carbonyloxy)ethyl)pyridine 1-oxide] | 1 to 10 | 
20 | Nc1ccc(S(=O)(=O)N2CCC[C@H]2C(=O)O[C@@H](Cc2c(Cl)c[n+]([O-])cc2Cl)c2ccc(OC(F)F)c(OCC3CC3)c2)cc1 [Compound 136, 4-((S)-2-((S)-1-(4-aminophenylsulfonyl)pyrrolidine-2-carbonyloxy)-2-(3-(cyclopropylmethoxy)-4-(difluoromethoxy)phenyl)ethyl)-3,5-dichloropyridine 1-oxide] | 0.1 to 1 | 
21 | COc1ccc(S(=O)(=O)N2CCS[C@H]2C(=O)O[C@@H](Cc2c(Cl)c[n+]([O-])cc2Cl)c2ccc(OC(F)F)c(OCC3CC3)c2)cc1OC [Compound 93, 3,5-dichloro-4-((S)-2-(3-(cyclopropylmethoxy)-4-(difluoromethoxy)phenyl)-2-((S)-3-(3,4-dimethoxyphenylsulfonyl)thiazolidine-2-carbonyloxy)ethyl)pyridine 1-oxide] | < 0.1 | 
22 | Cn1ccnc1S(=O)(=O)N1CCSC1C(=O)O[C@@H](Cc1c(Cl)c[n+]([O-])cc1Cl)c1ccc(OC(F)F)c(OCC2CC2)c1 (stereo partly drawn) [Compound 64, 3,5-dichloro-4-((2S)-2-(3-(cyclopropylmethoxy)-4-(difluoromethoxy)phenyl)-2-(3-(1-methyl-1H-imidazol-2-ylsulfonyl)thiazolidine-2-carbonyloxy)ethyl)pyridine 1-oxide] | < 0.1 | 
23 | COc1cc(C)ccc1S(=O)(=O)N1CCS[C@H]1C(=O)O[C@@H](Cc1c(Cl)c[n+]([O-])cc1Cl)c1ccc(OC(F)F)c(OCC2CC2)c1 [Compound 106, 3,5-dichloro-4-((S)-2-(3-(cyclopropylmethoxy)-4-(difluoromethoxy)phenyl)-2-((S)-3-(2-methoxy-4-methylphenylsulfonyl)thiazolidine-2-carbonyloxy)ethyl)pyridine 1-oxide] | < 0.1 | 
